Ends that are not written are not given here.
Legend:
[1] = format: in vitro ADME; conditions: rat liver lysosomal homogenate, 37 °C, LC-MS
Method: Next, we examined the enzymatic stability of two peptide conjugates in rat liver lysosomal homogenate (see Supplementary Information 2 for the method description). Peptides were dissolved at 0.025 µg/µl concentration then allowed to react with the lysosomal homogenate. Degradation of the conjugates was fast. […]
1.2 Lysosomal degradation studies
Enzymatic stability of INH-Dhvar4 and INH-Penetratin conjugates were assayed in rat liver lysosomal homogenate (protein content was 16.6 µg/µl). Peptides were dissolved in 0.2 M Sodium acetate buffer (pH=5.03) at 0.025 µg/µl concentration and added to the lysosomal homogenate to reach 1 : 1 protein / peptide ratio (37 °C, 600 rpm vortex) . At different time points (5 min, 30 min, 1 h, 6 h, 24 h) the reaction was stopped by the addition of 5 µl formic acid. Sampled were then measured by LC-MS using a Thermo Scientific Q Exactive Focus Hybrid Quadrupole -Orbitrap Mass Spectrometer (Suppl. Figu re 1). For chromatography, a Wa ters Acquity UPLC BEH C18 (1.7 µ, 150 × 2.1 mm) column was used with a flow rate of 300 µL/min applying a gradient elution from 2% to […]
(1 picture or pasted object on this page, not shown here)

[2] = Analytical RP-HPLC retention time (correlates with overall hydrophobicity); format: physicochemical; parameters: Rt (retention time): unit not given here; conditions: for Rt (retention time): chromatographic measure of hydrophobicity, Waters Acquity UPLC BEH C18 (1.7 µm, 150 × 2.1 mm), flow rate 0.3 ml/min, gradient 2% B 1 min, 2%–100% B 16 min, single peak or first of two 5(6)-Cf isomer peaks; for Rt (retention time), second peak: same column and gradient, second peak due to 5(6)-Cf isomers
Method: Purified peptides were analyzed by LC-MS using a Thermo Scientific Q Exactive Focus Hybrid Quadrupole-Orbitrap Mass Spectrometer. For the separation, a Waters Acquity UPLC BEH C18 (1.7 µm, 150 × 2.1 mm) column was used with a flow rate of 0.3 ml/min.
For INH conjugation, representative cell-penetrating (CPP) and antimicrobial peptides (AMP) were chosen. These cationic, amphiphilic peptides are favored in the transportation of various cargos due to their high internalization rate. The used peptide series contains well-known CPPs such as penetratin, transportan, and Tat, frequently studied AMPs such as magainin and buforin, and designed analogs such as Dhvar4, Crot(1-9,38-42), and CM15. Also, a receptor-binding tuftsin analog (OT20), which was reported as a macrophage-targeting peptide, was also applied. […] Mass spectra and RP-HPLC chromatograms are available at https://figshare.com/s/48a023a25068f7658adf, DOI: 10.6084/m9.figshare.16644901. […] To study the internalization rate and intracellular localization, fluorescently labeled analogs were also synthesized. Note that the retention time of Cf-peptide are somewhat higher than unlabeled analogs, and in some cases, two peaks were detected due to the isomeric distribution of 5(6)-Cf molecule.

[3] = system: CALU-1 monolayer / EBC-1 cells; format: in vitro ADME, human; conditions: Transwell, 0.4 µm polycarbonate, Cf-peptide apical 10 and 20 µM, 45 min, apical to basolateral; EBC-1 fluorescence read-out
Method: EBC-1 lung squamous carcinoma and CALU-1 human lung epidermoid carcinoma were seeded on 24-well plates with Transwell inserts (TW) [Nunc, Sigma polycarbonate microporous membrane, 0.4 µm pore size (growth area 0.412 cm^2)]. Before use, TW inserts were incubated with ICM. On day 1, 300 μl of CALU-1 suspension in complete DMEM medium (8.0 × 10^5 cells) was pipetted onto the surface of the TW apical chamber and 500 μl complete DMEM medium was added to the basolateral side. In order to avoid nonattached cells, after incubation at 37°C for 5–6 h, the apical medium was removed and replaced with fresh complete DMEM medium. […] On day 5, the medium was changed, then Cf-peptide was added to the CALU-1-containing apical side at 10 and 20 µM concentrations, and the system was incubated for 45 min or 3 h (37°C, 5% CO2). The TW chamber was removed after incubation. EBC-1 cells were studied using flow cytometry (BD LSR II).
EBC-1 cells were treated without the presence of the TW inserts as controls (on day 4 prior to treatment, EBC-1 cells (10^5 cells/well in complete DMEM). […]
Figure 7 The penetration ability of Cf-peptides was determined on Transwell bronchial interface, and the penetration rates were quantified by flow cytometry. […] The confluence of CALU-1 monolayer was monitored with CellTracker Green, and after development of stable green fluorescence, cells were imaged in situ. […]

MonoMac-6 cells = format: cell-based, human; conditions: 10 µM Cf-peptide, 2 h, LysoTracker, ImageJ JACoP on merged images
Method: Cellular uptake and localization were visualized by confocal laser scanning microscopy. MonoMac-6 cells were seeded 1 day prior to treatment into coverslips (thickness 1, Assistent, Karl Hecht GmbH, Sondheim vor der Rhön, Germany) containing a 24-well plate (Sarstedt, Nümbrecht, Germany) for microscopy studies at a density of 7.5 × 10^4 cells/well, in 1 ml complete DMEM medium. The following day, cells were treated with Cf-peptide at a concentration of 10 µM (diluted in serum-free DMEM medium) for 2 h. Lysosomes were stained by LysoTracker Deep Red (Invitrogen, Waltham, MA, USA) for 30 min, and nuclei were stained by Hoechst 33342 solution (Thermo Scientific, USA). After each step, cells were washed three times with serum-free medium, then cells were fixed by 4% paraformaldehyde for 15 min and mounted to microscopy slides with Mowiol 4-88 (Sigma, Budapest, Hungary). Imaging was performed by a Zeiss LSM-710 system (Carl Zeiss microscopy GmbH, Oberkochen, Germany) with a ×40/1.4 Plan-Apochromat oil immersion objective using lasers with the parameters: Cf peptides λex = 488 nm, λem = 541 nm, nuclei λex = 405 nm, λem = 467 nm (Hoechst 33342), lysosomes λex = 633 nm, λem = 720 nm (LysoTrackerTM Deep Red) or λex = 577 nm, λem = 590 nm (LysoTrackerTM Red DND-99) were used. Zeiss ZEN lite software (Carl Zeiss Microscopy GmbH, Jena, Germany) was used for image processing.
Parallel with flow cytometry measurements, confocal laser scanning microscopy images were also captured in order to assess qualitative information on intracellular localization. LysoTrackerTM Deep Red was used for lysosome and Hoechst 33342 for nuclear staining to distinguish subcellular localization of the Cf-peptide. […] Colocalization of Cf-peptide and LysoTracker may be subjectively identified by the cooccurrence, the simple spatial overlap which combined the contribution of both signals (green and red) when the images of each signal are superimposed (merged, see Supplementary Figure S3 ).
microscopy at the 10 µM Cf-peptide concentration (based on flow cytometry profile), and MonoMac6 cells were incubated for 2 hrs.
the visible differences among localization profiles of the Cf-peptides, we applied greyscale analysis of
the images and the evaluation was carried out on a representative peptide set.
were studied and the treatment, the staining and fixation process were carefully optimized to assess
Laser intensity values were identical in case of all Cf-peptides. ZEN 3.0 blue lite software
was used for image processing and grey scale values were extracted using NIH ImageJ software’s Plot

Compound	Rt (retention time) [2]	other results
CC[C@H](C)[C@H](NC(=O)[C@H](CCCCN)NC(=O)[C@@H](NC(=O)[C@H](CCC(N)=O)NC(=O)[C@H](CCCNC(=N)N)NC(=O)CNNC(=O)c1ccncc1)[C@@H](C)CC)C(=O)N[C@@H](Cc1c[nH]c2ccccc12)C(=O)N[C@@H](Cc1ccccc1)C(=O)N[C@@H](CCC(N)=O)C(=O)N[C@@H](CC(N)=O)C(=O)N[C@@H](CCCNC(=N)N)C(=O)N[C@@H](CCCNC(=N)N)C(=O)N[C@@H](CCSC)C(=O)N[C@@H](CCCCN)C(=O)N[C@@H](Cc1c[nH]c2ccccc12)C(=O)N[C@@H](CCCCN)C(=O)N[C@@H](CCCCN)C(N)=O [INH-Penetratin]		peaks of the intact conjugates after 30 min of incubation ([1]; 0.2 M sodium acetate buffer pH 5.03, 0.025 µg/µl, 1:1 protein/peptide ratio): almost disappeared; most stable fragment (main peak after 24 h of incubation) ([1]; pH 5.03, 0.025 µg/µl): tetrapeptide (RQIK) with INH
CC[C@H](C)[C@H](NC(=O)CN)C(=O)NCC(=O)N[C@@H](C)C(=O)N[C@H](C(=O)N[C@@H](CC(C)C)C(=O)N[C@@H](CCCCN)C(=O)N[C@H](C(=O)N[C@@H](CC(C)C)C(=O)N[C@H](C(=O)N[C@H](C(=O)NCC(=O)N[C@@H](CC(C)C)C(=O)N1CCC[C@H]1C(=O)N[C@@H](C)C(=O)N[C@@H](CC(C)C)C(=O)N[C@H](C(=O)N[C@@H](CO)C(=O)N[C@@H](Cc1c[nH]c2ccccc12)C(=O)N[C@H](C(=O)N[C@@H](CCCCN)C(=O)N[C@@H](CCCNC(=N)N)C(=O)N[C@@H](CCCCN)C(=O)N[C@@H](CCCNC(=N)N)C(=O)N[C@@H](CCC(N)=O)C(=O)N[C@@H](CCC(N)=O)C(N)=O)[C@@H](C)CC)[C@@H](C)CC)[C@@H](C)O)[C@@H](C)O)C(C)C)C(C)C [Melittin, reference compound]	10.6	
CC[C@H](C)[C@H](NC(=O)[C@H](CCCCN)NC(=O)[C@@H](NC(=O)[C@H](CCC(N)=O)NC(=O)[C@@H](N)CCCNC(=N)N)[C@@H](C)CC)C(=O)N[C@@H](Cc1c[nH]c2ccccc12)C(=O)N[C@@H](Cc1ccccc1)C(=O)N[C@@H](CCC(N)=O)C(=O)N[C@@H](CC(N)=O)C(=O)N[C@@H](CCCNC(=N)N)C(=O)N[C@@H](CCCNC(=N)N)C(=O)N[C@@H](CCSC)C(=O)N[C@@H](CCCCN)C(=O)N[C@@H](Cc1c[nH]c2ccccc12)C(=O)N[C@@H](CCCCN)C(=O)N[C@@H](CCCCN)C(N)=O [Penetratin, reference compound]	6.1	penetration through CALU-1 monolayer and internalization into EBC-1 cells [3]: higher internalization rates
N=C(N)NCCC[C@H](NC(=O)[C@H](CCCNC(=N)N)NC(=O)[C@H](CCCNC(=N)N)NC(=O)[C@H](CCC(N)=O)NC(=O)[C@H](CCCNC(=N)N)NC(=O)[C@H](CCCNC(=N)N)NC(=O)[C@H](CCCCN)NC(=O)[C@H](CCCCN)NC(=O)[C@H](CCCNC(=N)N)NC(=O)CNC(=O)[C@@H](N)Cc1ccc(O)cc1)C(N)=O [Tat, reference compound]	0.9	
CC[C@H](C)[C@H](NC(=O)[C@H](CCCCN)NC(=O)[C@H](CCCCN)NC(=O)[C@H](C)NC(=O)[C@H](CC(C)C)NC(=O)[C@H](C)NC(=O)[C@H](C)NC(=O)[C@H](CC(C)C)NC(=O)[C@H](C)NC(=O)[C@H](CCCCN)NC(=O)[C@H](CC(C)C)NC(=O)[C@H](CC(N)=O)NC(=O)[C@@H](NC(=O)[C@H](CCCCN)NC(=O)CNC(=O)[C@H](CC(C)C)NC(=O)[C@H](CC(C)C)NC(=O)[C@H](Cc1ccc(O)cc1)NC(=O)CNC(=O)[C@H](C)N)[C@@H](C)CC)C(=O)N[C@@H](CC(C)C)C(N)=O [reference compound]	10.6	
Cf-AGYLLGKINLKALAALAKKIL [Cf-Penetratin, 5(6)-carboxyfluorescein-labeled penetratin]		Pearson's coefficient of colocalization with lysosomal staining (MonoMac-6 cells): 0.490
Cf-GIGAVLKVLTTGLPALISWIKRKRQQ [Cf-Melittin, 5(6)-carboxyfluorescein-labeled melittin]	12.2	
Cf-GIGKFLHSAKKFGKAFVGEIMNS [Cf-Transportan, 5(6)-carboxyfluorescein-labeled transportan]		Pearson's coefficient of colocalization with lysosomal staining (MonoMac-6 cells): 0.823
Cf-KWKLFKKIGAVLKVL [Cf-CM15, 5(6)-carboxyfluorescein-labeled CM15]	9.6	Rt (retention time), second peak [2]: 9.7; Pearson's coefficient of colocalization with lysosomal staining (MonoMac-6 cells): 0.358
Cf-RAGLQFPVGRVHRLLRK [Cf-Buforin, 5(6)-carboxyfluorescein-labeled buforin]	7.7	Rt (retention time), second peak [2]: 7.8
Cf-TKPKGTKPKGTKPKGTKPKG [Cf-OT20, 5(6)-carboxyfluorescein-labeled OT20]	4.9	Rt (retention time), second peak [2]: 5.0
Cf-YGRKKRRQRRR [Cf-Tat, 5(6)-carboxyfluorescein-labeled Tat]	4.6	Rt (retention time), second peak [2]: 5.0
Cf-YKQCHKKGGKKGSG [Cf-Crot(1-9,38-42), 5(6)-carboxyfluorescein-labeled Crot(1-9,38-42)]	5.5	Rt (retention time), second peak [2]: 5.8
GIGKFLHSAKKFGKAFVGEIMNS-NH2 [Magainin, reference compound]	8.2	
KWKLFKKIGAVLKVL-NH2 [CM15, reference compound]	8.4	
RAGLQFPVGRVHRLLRK-NH2 [Buforin, reference compound]	6.6	
TKPKGTKPKGTKPKGTKPKG-NH2 [OT20, reference compound]	1.6	
YKQCHKKGGKKGSG-NH2 [Crot(1-9,38-42), reference compound]	0.8	
